Results reported in ChEMBL document CHEMBL3244157, “Synthesis and antiinflammatory evaluation of substituted isophthalonitriles, trimesonitriles, benzonitriles, and terephthalonitriles” (J Med Chem, 1978).

Columns and labels:
Rattus norvegicus [1] = assay: Antiinflammatory activity in Long Evans rat assessed as reduction of carrageenan-induced pedal edema at 200 mg/kg, po administered 1 hr prior to carrageenan challenge measured after 3 hrs relative to control; type: functional; design: scale not given: the % may be the effect or the level left
[2] = Toxicity in mouse assessed as overt effects; type: organism-based; conditions: in vivo
Rattus norvegicus [3] = assay: Antiinflammatory activity in Long Evans rat assessed as reduction of carrageenan-induced pedal edema at 50 mg/kg, po administered 1 hr prior to carrageenan challenge measured after 3 hrs relative to control; type: functional; design: scale not given: the % may be the effect or the level left
Rattus norvegicus [4] = assay: Antiinflammatory activity in Long Evans rat assessed as reduction of carrageenan-induced pedal edema at 100 mg/kg, po administered 1 hr prior to carrageenan challenge measured after 3 hrs relative to control; type: functional; design: scale not given: the % may be the effect or the level left
Rattus norvegicus [5] = assay: Antiinflammatory activity in Long Evans rat assessed as reduction of carrageenan-induced pedal edema at 150 mg/kg, po administered 1 hr prior to carrageenan challenge measured after 3 hrs relative to control; type: functional; design: scale not given: the % may be the effect or the level left
Rattus norvegicus [6] = assay: Antiinflammatory activity in Long Evans rat assessed as reduction of carrageenan-induced pedal edema at 40 mg/kg, po administered 1 hr prior to carrageenan challenge measured after 3 hrs relative to control; type: functional; design: scale not given: the % may be the effect or the level left
Rattus norvegicus [7] = assay: Antiinflammatory activity in Long Evans rat assessed as reduction of carrageenan-induced pedal edema at 15 mg/kg, po administered 1 hr prior to carrageenan challenge measured after 3 hrs relative to control; type: functional; design: scale not given: the % may be the effect or the level left

Structure (SMILES) | Activity (Rattus norvegicus [1]) | LD50 [2] | also measured
Cc1cccc(C#N)c1 | 20% | > 300 mg/kg | –
N#Cc1c(N)c(Cl)c(Cl)c(C#N)c1Cl | 25% | > 300 mg/kg | –
N#Cc1cccc(C#N)c1 | 35% | 178 mg/kg | –
N#Cc1ccc(Cl)cc1 | 30% | > 300 mg/kg | –
N#Cc1cc(C#N)c(F)cc1F | – | 56 mg/kg | Activity (Rattus norvegicus [3]): 59%
N#Cc1c(Cl)c(C#N)c(Nc2ccc(Br)cc2)c(C#N)c1Cl | 14% | 300 mg/kg | –
N#Cc1c(Cl)c(C#N)c(Nc2ccc(N)cc2)c(C#N)c1Cl | – | 133 mg/kg | Activity (Rattus norvegicus [4]): 14%
N#Cc1c(O)c(Cl)c(Cl)c(C#N)c1Cl | – | 178 mg/kg | Activity (Rattus norvegicus [5]): 28%
CNc1c(Cl)c(Cl)c(C#N)c(Cl)c1C#N | 22% | > 300 mg/kg | –
CCCCNc1c(Cl)c(Cl)c(C#N)c(Cl)c1C#N | 17% | > 300 mg/kg | –
C=CCNc1c(Cl)c(Cl)c(C#N)c(Cl)c1C#N | 17% | > 300 mg/kg | –
CCCCC(CC)CNc1c(Cl)c(Cl)c(C#N)c(Cl)c1C#N (stereo unspecified) | 0% | > 300 mg/kg | –
COc1c(Cl)c(Cl)c(C#N)c(Cl)c1C#N | – | 178 mg/kg | Activity (Rattus norvegicus [4]): 0%
CCCOc1c(Cl)c(Cl)c(C#N)c(Cl)c1C#N | – | 178 mg/kg | Activity (Rattus norvegicus [4]): 8%
CCCCOc1c(Cl)c(Cl)c(C#N)c(Cl)c1C#N | – | 178 mg/kg | Activity (Rattus norvegicus [4]): 8%
CC(=O)Oc1c(Cl)c(Cl)c(C#N)c(Cl)c1C#N | 25% | 237 mg/kg | –
CCC(=O)Oc1c(Cl)c(Cl)c(C#N)c(Cl)c1C#N | 11% | 178 mg/kg | –
CCCC(=O)Oc1c(Cl)c(Cl)c(C#N)c(Cl)c1C#N | – | 178 mg/kg | Activity (Rattus norvegicus [5]): 14%
CC(C)C(=O)Oc1c(Cl)c(Cl)c(C#N)c(Cl)c1C#N | 0% | 237 mg/kg | –
CC(C)CCC(=O)Oc1c(Cl)c(Cl)c(C#N)c(Cl)c1C#N | – | 56 mg/kg | Activity (Rattus norvegicus [3]): 0%
CCCCCC(=O)Oc1c(Cl)c(Cl)c(C#N)c(Cl)c1C#N | 11% | > 300 mg/kg | –
CCCCC(CC)C(=O)Oc1c(Cl)c(Cl)c(C#N)c(Cl)c1C#N (stereo unspecified) | 20% | > 300 mg/kg | –
CCCCCCCC(=O)Oc1c(Cl)c(Cl)c(C#N)c(Cl)c1C#N | – | 178 mg/kg | Activity (Rattus norvegicus [5]): 22%

Structure (SMILES) | Activity (Rattus norvegicus [1]) | LD50 [2] | also measured
N#Cc1c(Cl)c(Cl)c(OC(=O)c2ccccc2)c(C#N)c1Cl | 11% | > 300 mg/kg | –
CNC(=O)Oc1c(Cl)c(Cl)c(C#N)c(Cl)c1C#N | – | 178 mg/kg | Activity (Rattus norvegicus [4]): 20%
CCCCNC(=O)Oc1c(Cl)c(Cl)c(C#N)c(Cl)c1C#N | – | 178 mg/kg | Activity (Rattus norvegicus [4]): 3%
N#Cc1ccc(Br)c(C#N)c1 | – | 178 mg/kg | Activity (Rattus norvegicus [4]): 3%
N#Cc1cccc(C#N)c1Cl | 20% | 300 mg/kg | –
N#Cc1ccc(F)c(C#N)c1 | – | 178 mg/kg | Activity (Rattus norvegicus [5]): 25%
N#Cc1cc(C#N)c(Cl)cc1Cl | – | 178 mg/kg | Activity (Rattus norvegicus [5]): 5%
N#Cc1c(Cl)cc(Cl)c(C#N)c1Cl | 8% | 100 mg/kg | –
N#Cc1c(Cl)c(C#N)c(Nc2cccc(Cl)c2)c(C#N)c1Cl | – | 178 mg/kg | Activity (Rattus norvegicus [6]): 0%
N#Cc1c(Cl)c(C#N)c(Nc2ccc(Cl)cc2)c(C#N)c1Cl | – | 178 mg/kg | Activity (Rattus norvegicus [5]): 1%
N#Cc1c(Cl)c(C#N)c(Nc2ccccc2O)c(C#N)c1Cl | – | 24 mg/kg | Activity (Rattus norvegicus [7]): 17%
N#Cc1c(Cl)c(C#N)c(Nc2cccc(F)c2)c(C#N)c1Cl | – | 56 mg/kg | Activity (Rattus norvegicus [6]): 0%
N#Cc1c(Cl)c(C#N)c(Nc2ccc(F)cc2F)c(C#N)c1Cl | – | 56 mg/kg | Activity (Rattus norvegicus [6]): 12%
N#Cc1c(Cl)c(C#N)c(Nc2cccc(C(F)(F)F)c2)c(C#N)c1Cl | 29% | 237 mg/kg | –
N#Cc1c(Cl)c(C#N)c(Nc2ccc(Cl)c(Cl)c2)c(C#N)c1Cl | – | 56 mg/kg | –
COc1ccc(Nc2c(C#N)c(Cl)c(C#N)c(Cl)c2C#N)cc1OC | – | 178 mg/kg | Activity (Rattus norvegicus [5]): 13%
Cc1cccc(Nc2c(C#N)c(Cl)c(C#N)c(Cl)c2C#N)c1C | – | 75 mg/kg | Activity (Rattus norvegicus [3]): 22%
Cc1ccc(Nc2c(C#N)c(Cl)c(C#N)c(Cl)c2C#N)c(C)c1 | – | 56 mg/kg | Activity (Rattus norvegicus [6]): 13%
CNc1c(C#N)c(Cl)c(C#N)c(NC)c1C#N | 20% | 300 mg/kg | –
CCNc1c(C#N)c(Cl)c(C#N)c(NCC)c1C#N | 11% | 300 mg/kg | –
CC(C)Nc1c(C#N)c(Cl)c(C#N)c(NC(C)C)c1C#N | 5% | 300 mg/kg | –
N#Cc1cc(C#N)cc(C#N)c1 | 32% | 300 mg/kg | –
Cc1c(C#N)c(C)c(C#N)c(C)c1C#N | – | 40 mg/kg | Activity (Rattus norvegicus [3]): 57%

Structure (SMILES) | Activity (Rattus norvegicus [1]) | LD50 [2] | also measured
CCC(=O)Oc1c(Cl)c(Cl)c(C#N)c(Cl)c1Cl | 0% | > 300 mg/kg | –
CCCC(=O)Oc1c(Cl)c(Cl)c(C#N)c(Cl)c1Cl | 15% | > 300 mg/kg | –
CC(C)C(=O)Oc1c(Cl)c(Cl)c(C#N)c(Cl)c1Cl | 0% | > 300 mg/kg | –
CCCCC(=O)Oc1c(Cl)c(Cl)c(C#N)c(Cl)c1Cl | 2% | > 300 mg/kg | –
CCCCCC(=O)Oc1c(Cl)c(Cl)c(C#N)c(Cl)c1Cl | 0% | > 300 mg/kg | –
CCC(CC)C(=O)Oc1c(Cl)c(Cl)c(C#N)c(Cl)c1Cl | 11% | > 300 mg/kg | –
CCCCCCCC(=O)Oc1c(Cl)c(Cl)c(C#N)c(Cl)c1Cl | 0% | > 300 mg/kg | –
CCCCC(CC)C(=O)Oc1c(Cl)c(Cl)c(C#N)c(Cl)c1Cl (stereo unspecified) | 15% | > 300 mg/kg | –
CCCCCCCCCCCC(=O)Oc1c(Cl)c(Cl)c(C#N)c(Cl)c1Cl | 11% | > 300 mg/kg | –
N#Cc1c(Cl)c(Cl)c(OC(=O)C(Cl)(Cl)Cl)c(Cl)c1Cl | 17% | > 300 mg/kg | –
N#Cc1c(Cl)c(Cl)c(OC(=O)Cc2ccccc2)c(Cl)c1Cl | 0% | > 300 mg/kg | –
N#Cc1c(Cl)c(Cl)c(OC(=O)c2ccccc2Cl)c(Cl)c1Cl | 0% | > 300 mg/kg | –
N#Cc1c(Cl)c(Cl)c(OC(=O)c2ccc(Cl)c(Cl)c2)c(Cl)c1Cl | 3% | > 300 mg/kg | –
CC(C)S(=O)(=O)c1c(Cl)c(Cl)c(C#N)c(Cl)c1Cl | 11% | > 300 mg/kg | –
CCCCS(=O)(=O)c1c(Cl)c(Cl)c(C#N)c(Cl)c1Cl | 12% | 237 mg/kg | –
CCCCCS(=O)(=O)c1c(Cl)c(Cl)c(C#N)c(Cl)c1Cl | 5% | 237 mg/kg | –
CCCCCCS(=O)(=O)c1c(Cl)c(Cl)c(C#N)c(Cl)c1Cl | – | 178 mg/kg | Activity (Rattus norvegicus [5]): 2%
CCCCCCCCCCS(=O)(=O)c1c(Cl)c(Cl)c(C#N)c(Cl)c1Cl | 0% | > 300 mg/kg | –
N#CCCS(=O)(=O)c1c(Cl)c(Cl)c(C#N)c(Cl)c1Cl | – | 56 mg/kg | Activity (Rattus norvegicus [6]): 5%
N#Cc1c(Cl)c(Cl)c(S(=O)(=O)CCCl)c(Cl)c1Cl | 0% | > 300 mg/kg | –
N#Cc1c(Cl)c(Cl)c(S(=O)(=O)CCCCCl)c(Cl)c1Cl | 15% | > 300 mg/kg | –
CCOCCS(=O)(=O)c1c(Cl)c(Cl)c(C#N)c(Cl)c1Cl | 23% | 237 mg/kg | –
N#Cc1c(Cl)c(Cl)c(S(=O)(=O)CCCc2ccccc2)c(Cl)c1Cl | 18% | 300 mg/kg | –

Structure (SMILES) | Activity (Rattus norvegicus [1]) | LD50 [2] | also measured
N#Cc1ccc(Br)cc1 | – | 237 mg/kg | Activity (Rattus norvegicus [5]): 75%
N#Cc1ccccc1Cl | 26% | > 300 mg/kg | –
N#Cc1ccccc1Br | 19% | > 300 mg/kg | –
N#Cc1ccc(F)cc1 | 17% | > 300 mg/kg | –
Cc1ccc(C#N)cc1C | 25% | > 300 mg/kg | –
CNc1c(F)c(C#N)c(F)c(F)c1C#N | – | 56 mg/kg | Activity (Rattus norvegicus [6]): 17%
CCNc1c(F)c(C#N)c(F)c(F)c1C#N | 19% | 237 mg/kg | –
CCCCNc1c(F)c(C#N)c(F)c(F)c1C#N | 14% | > 300 mg/kg | –
CCCCCCNc1c(F)c(C#N)c(F)c(F)c1C#N | 11% | > 300 mg/kg | –
CCN(CC)c1c(F)c(C#N)c(F)c(F)c1C#N | 0% | > 300 mg/kg | –
CCCN(CCC)c1c(F)c(C#N)c(F)c(F)c1C#N | 22% | > 300 mg/kg | –
N#Cc1c(F)c(F)c(C#N)c(Nc2ccc(O)cc2)c1F | 10% | > 300 mg/kg | –
N#Cc1c(Cl)c(Cl)c(C#N)c(Cl)c1Cl | 13% | > 300 mg/kg | –
N#Cc1c(F)c(F)c(C#N)c(F)c1F | – | 56 mg/kg | Activity (Rattus norvegicus [3]): 54%
N#Cc1ccc(C#N)cc1 | 27% | > 300 mg/kg | –
N#Cc1ccc(C#N)c(Cl)c1 | 46% | > 300 mg/kg | –
N#Cc1ccc(C#N)c(F)c1 | 49% | > 300 mg/kg | –
N#Cc1cc(Cl)c(C#N)cc1Cl | 22% | > 300 mg/kg | –
N#Cc1cc(F)c(C#N)cc1F | 32% | 56 mg/kg | –
N#Cc1cc(Cl)c(C#N)cc1F | 22% | > 300 mg/kg | –
N#Cc1c(F)c(F)c(C#N)c(Cl)c1F | – | 40 mg/kg | Activity (Rattus norvegicus [6]): 86%
CCCCC1C(=O)N(c2ccccc2)N(c2ccccc2)C1=O [PHENYLBUTAZONE] | – | > 300 mg/kg | Activity (Rattus norvegicus [4]): 43.8%
